Measured values taken from patent publication US20120225062A1 (priority 2011, published 2012).

Experiments:
Pim 3 = Pim 3 (Homo sapiens, UniProt Q86V86); test: Pim 3 AlphaScreen assay (high ATP)
Description: (§1) The activity of Pim 1, Pim 2, & Pim 3 is measured using a homogeneous bead based system quantifying the amount of phosphorylated peptide substrate resulting from kinase-catalyzed phosphoryl transfer to a peptide substrate. Compounds to be tested are dissolved in 100% DMSO and directly distributed to a white 384-well plate at 0.25 μl per well. […] This is followed by the addition of 5 μl/well of Pim 1, Pim 2 or Pim 3 kinase in assay buffer (concentrations described below). Final assay concentrations (described below) are in 2.5% DMSO. The reactions are performed for ˜2 hours, then stopped by the addition of 10 μl of 0.75 μg/ml anti-phospho Ser/Thr antibody (Cell Signaling), 10 μg/ml Protein A AlphaScreen beads (Perkin Elmer), and 10 μg/ml streptavidin coated AlphaScreen beads in stop/detection buffer (50 mM EDTA, 95 mM Tris, pH=7.5, 0.01% Tween-20). The stopped reactions are incubated overnight in the dark. The phosphorylated peptide is detected via an oxygen anion initiated chemiluminescence/fluorescence cascade using the Envision plate reader (Perkin Elmer).

Pim 2 = Pim 2 (Homo sapiens, UniProt Q9P1W9); test: Pim 2 AlphaScreen assay (high ATP)
[1] = tested on: KMS11 (human myeloma cell line); test: Cell Proliferation Assay (CellTiter-Glo, 3 days); type: cell-based; conditions: KMS-11, 72 h, KMS11-luc cells
Outline: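 KMS11 myeloma cells, 2000 per well in IMDM with 10% FBS, exposed to compound for 3 days at 37° C. Viability read by CellTiter-Glo luminescence; EC50 derived.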

Pim 1 = Pim 1 (Homo sapiens, UniProt P11309); test: Pim 1 AlphaScreen assay (high ATP)
Chain of Pim 1 (P11309 whole entry): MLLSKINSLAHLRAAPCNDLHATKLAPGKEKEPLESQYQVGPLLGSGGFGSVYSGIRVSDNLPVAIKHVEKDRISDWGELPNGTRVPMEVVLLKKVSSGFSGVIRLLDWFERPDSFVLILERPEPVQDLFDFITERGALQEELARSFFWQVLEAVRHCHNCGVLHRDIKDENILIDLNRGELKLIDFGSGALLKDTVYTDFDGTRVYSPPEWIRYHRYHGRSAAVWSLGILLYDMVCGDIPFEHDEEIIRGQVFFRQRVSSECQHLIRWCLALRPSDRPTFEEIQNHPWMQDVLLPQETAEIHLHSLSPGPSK
Description: as §1

Chain of Pim 2 (Q9P1W9 whole entry): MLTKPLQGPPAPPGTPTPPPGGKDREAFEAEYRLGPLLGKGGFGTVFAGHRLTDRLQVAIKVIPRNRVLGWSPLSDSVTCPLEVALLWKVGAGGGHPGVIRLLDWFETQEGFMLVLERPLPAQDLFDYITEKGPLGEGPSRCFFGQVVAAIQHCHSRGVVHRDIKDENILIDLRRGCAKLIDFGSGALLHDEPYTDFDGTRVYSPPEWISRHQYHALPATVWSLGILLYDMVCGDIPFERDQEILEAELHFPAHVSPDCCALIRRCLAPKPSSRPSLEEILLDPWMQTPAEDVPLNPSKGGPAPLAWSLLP

SMILES	IC50 (Pim 3)	IC50 (Pim 2)	EC50 [1]	IC50 (Pim 1)
C[C@@H]1C[C@H](N)C[C@H](c2ccncc2NC(=O)c2ccc(F)c(-c3c(F)cc(OCC4(C#N)CCOCC4)cc3F)n2)C1 [Example 185, N-(4-((1R,3S,5S)-3-amino-5-methylcyclohexyl)pyridin-3-yl)-6-(4-((4-cyanotetrahydro-2H-pyran-4-yl)methoxy)-2,6-difluorophenyl)-5-fluoropicolinamide]	2.44 nM	4.04 nM	632 nM	0.02 nM
C[C@@H]1C[C@H](N)C[C@H](c2ccncc2NC(=O)c2ccc(F)c(-c3c(F)ccc(OCCO)c3F)n2)C1 [Example 29, N-(4-((1R,3S,5S)-3-amino-5-methylcyclohexyl)pyridin-3-yl)-6-(2,6-difluoro-3-(2-hydroxyethoxy)phenyl)-5-fluoropicolinamide]	1.08 nM	2.33 nM	64 nM	0.04 nM
COCCOc1cc(F)c(-c2nc(C(=O)Nc3cnccc3N3C[C@@H](N)[C@H](O)[C@@H](C)C3)ccc2F)c(F)c1 [Example 22, N-(4-((3R,4R,5S)-3-amino-4-hydroxy-5-methylpiperidin-1-yl)pyridin-3-yl)-6-(2,6-difluoro-4-(2-methoxyethoxy)phenyl)-5-fluoropicolinamide]	0.45 nM	1.5 nM	10 nM	0.03 nM
C[C@@H]1C[C@H](N)C[C@H](c2ccncc2NC(=O)c2ccc(F)c(-c3c(F)cc(C4(F)CCOCC4)cc3F)n2)C1 [Example 126, N-(4-((1R,3S,5S)-3-amino-5-methylcyclohexyl)pyridin-3-yl)-6-(216-difluoro-4-(4-fluorotetrahydro-2H-pyran-4-yl)phenyl)-5-fluoropicolinamide]	1.15 nM	1.33 nM	64 nM	0.02 nM
COCCOc1cc(F)c(-c2cccc(C(=O)Nc3cnccc3[C@@H]3C[C@H](C)C[C@H](N)C3)n2)c(F)c1 [Example 188, N-(4-((1R,3S,5S)-3-amino-5-methylcyclohexyl)pyridin-3-yl)-6-(2,6-difluoro-4-(2-methoxyethoxy)phenyl)picolinamide]	1.96 nM	3.96 nM	478 nM	0.07 nM
COC(C)(C)COc1cc(F)c(-c2nc(C(=O)Nc3cnccc3[C@@H]3C[C@H](C)C[C@H](N)C3)ccc2F)c(F)c1 [Example 46, N-(4-((1R,3S,5S)-3-amino-5-methylcyclohexyl)pyridin-3-yl)-6-(2,6-difluoro-4-(2-methoxy-2-methylpropoxy)phenyl)-5-fluoropicolinamide]	0.85 nM	2.77 nM	84 nM	0.02 nM
C[C@@H]1C[C@H](N)C[C@H](c2ccncc2NC(=O)c2ccc(F)c(-c3c(F)cc(C4CCS(=O)(=O)CC4)cc3F)n2)C1 [Example 202, N-(4-((1R,3S,5S)-3-amino-5-methylcyclohexyl)pyridin-3-yl)-6-(4-(1,1-dioxidotetrahydro-2H-thiopyran-4-yl)-2,6-difluorophenyl)-5-fluoropicolinamide]	0.68 nM	1.09 nM	251 nM	0.01 nM
C[C@H]1CN(c2ccncc2NC(=O)c2ccc(F)c(-c3c(F)cc(C4CCOCC4)cc3F)n2)C[C@@H](N)[C@@H]1O [Example 99, N-(4-((3R,4R,5S)-3-amino-4-hydroxy-5-methylpiperidin-1-yl)pyridin-3-yl)-6-(2,6-difluoro-4-(tetrahydro-2H-pyran-4-yl)phenyl)-5-fluoropicolinamide]	0.12 nM	0.57 nM	10 nM	0.01 nM
COc1ccc(F)c(-c2nc(C(=O)Nc3cnccc3[C@@H]3C[C@H](C)C[C@H](N)C3)ccc2F)c1F [Example 212, N-(4-((1R,3S,5S)-3-amino-5-methylcyclohexyl)pyridin-3-yl)-6-(2,6-difluoro-3-methoxyphenyl)-5-fluoropicolinamide]	1.03 nM	3.77 nM	50 nM	0.03 nM
C[C@@H]1C[C@H](N)C[C@H](c2ccncc2NC(=O)c2ccc(F)c(-c3c(F)cc(OCCN4CCCC4=O)cc3F)n2)C1 [Example 132, N-(4-((1R,3S,5S)-3-amino-5-methylcyclohexyl)pyridin-3-yl)-6-(2,6-difluoro-4-(2-(2-oxopyrrolidin-1-yl)ethoxy)phenyl)-5-fluoropicolinamide]	1.1 nM	4.78 nM	206 nM	0.02 nM
C[C@@H]1C[C@H](N)C[C@H](c2ccncc2NC(=O)c2ccc(F)c(-c3c(F)cc(C4CCOCC4)cc3F)n2)C1 [Example 82, N-(4-((1R,3S,5S)-3-amino-5-methylcyclohexyl)pyridin-3-yl)-6-(2,6-difluoro-4-(tetrahydro-2H-pyran-4-yl)phenyl)-5-fluoropicolinamide]	0.52 nM	1.05 nM	30 nM	0.01 nM
COCCCOc1cc(F)c(-c2nc(C(=O)Nc3cnccc3[C@H]3C[C@@H](N)[C@H](O)[C@@H](C)C3)ccc2F)c(F)c1 [Example 184, N-(4-((1R,3R,4R,5S)-3-amino-4-hydroxy-5-methylcyclohexyl)pyridin-3-yl)-6-(2,6-difluoro-4-(3-methoxypropoxy)phenyl)-5-fluoropicolinamide]	0.93 nM	3.54 nM	161 nM	0.03 nM
COCCOc1ccc(F)c(-c2nc(C(=O)Nc3cnccc3[C@H]3C[C@@H](N)[C@H](O)[C@@H](C)C3)ccc2F)c1F [Example 18, N-(4-((1R,3R,4R,5S)-3-amino-4-hydroxy-5-methylcyclohexyl)pyridin-3-yl)-6-(2,6-difluoro-3-(2-methoxyethoxy)phenyl)-5-fluoropicolinamide]	2.93 nM	32.3 nM	201 nM	0.13 nM

Next, values leading:

IC50 (Pim 3)	IC50 (Pim 2)	EC50 [1]	IC50 (Pim 1)	SMILES
1.36 nM	3.15 nM	55 nM	0.04 nM	C[C@H]1C[C@@H](c2ccncc2NC(=O)c2ccc(F)c(-c3c(F)cc4c(c3F)OCC[C@@]4(C)O)n2)C[C@@H](N)[C@@H]1O [Example 238, N-(4-((1R,3R,4R,5S)-3-amino-4-hydroxy-5-methylcyclohexyl)pyridin-3-yl)-6-((R)-6,8-difluoro-4-hydroxy-4-methylchroman-7-yl)-5-fluoropicolinamide]
1.33 nM	2.43 nM	166 nM	0.04 nM	CCOCc1cc(F)c(-c2nc(C(=O)Nc3cnccc3[C@H]3C[C@@H](N)[C@H](O)[C@@H](C)C3)ccc2F)c(F)c1 [Example 83, N-(4-((1R,3R,4R,5S)-3-amino-4-hydroxy-5-methylcyclohexyl)pyridin-3-yl)-6-(4-(ethoxymethyl)-2,6-difluorophenyl)-5-fluoropicolinamide]
0.53 nM	1.38 nM	40 nM	0.03 nM	C[C@H]1C[C@@H](c2ccncc2NC(=O)c2nc(-c3c(F)cc(C4COC4)cc3F)c(F)cc2N)C[C@@H](N)[C@@H]1O [Example 98, 3-amino-N-(4-((1R,3R,4R,5S)-3-amino-4-hydroxy-5-methylcyclohexyl)pyridin-3-yl)-6-(2,6-difluoro-4-(oxetan-3-yl)phenyl)-5-fluoropicolinamide]
0.13 nM	0.53 nM	12 nM	0.01 nM	C[C@@H]1C[C@H](N)C[C@H](c2ccncc2NC(=O)c2nc(-c3c(F)cc(C(C)(C)O)cc3F)c(F)cc2N)C1 [Example 100, 3-amino-N-(4-((1R,3S,5S)-3-amino-5-methylcyclohexyl)pyridin-3-yl)-6-(2,6-difluoro-4-(2-hydroxypropan-2-yl)phenyl)-5-fluoropicolinamide]
0.39 nM	1.29 nM	24 nM	0.01 nM	C[C@H]1C[C@@H](c2ccncc2NC(=O)c2ccc(F)c(-c3c(F)cc(C4CCOCC4)cc3F)n2)C[C@@H](N)[C@@H]1O [Example 94, N-(4-((1R,3R,4R,5S)-3-amino-4-hydroxy-5-methylcyclohexyl)pyridin-3-yl)-6-(2,6-difluoro-4-(tetrahydro-2H-pyran-4-yl)phenyl)-5-fluoropicolinamide]
6.9 nM	10.3 nM	549 nM	0.08 nM	C[C@H]1C[C@@H](c2ccncc2NC(=O)c2ccc(F)c(-c3c(F)cc(C4(F)COC4)cc3F)n2)C[C@@H](N)[C@H]1O [Example 137, N-(4-((1R,3R,4S,5S)-3-amino-4-hydroxy-5-methylcyclohexyl)pyridin-3-yl)-6-(2,6-difluoro-4-(3-fluorooxetan-3-yl)phenyl)-5-fluoropicolinamide]
1.9 nM	4.76 nM	52 nM	0.06 nM	C[C@H]1C[C@@H](c2ccncc2NC(=O)c2ccc(F)c(-c3c(F)cc(OCCO)cc3F)n2)C[C@@H](N)[C@@H]1O [Example 32, N-(4-((1R,3R,4R,5S)-3-amino-4-hydroxy-5-methylcyclohexyl)pyridin-3-yl)-6-(2,6-difluoro-4-(2-hydroxyethoxy)phenyl)-5-fluoropicolinamide]
0.58 nM	0.92 nM	145 nM	0.02 nM	C[C@H]1C[C@@H](c2ccncc2NC(=O)c2ccc(F)c(-c3c(F)cc4c(c3F)OCC4)n2)C[C@@H](N)[C@@H]1O [Example 180, N-(4-((1R,3R,4R,5S)-3-amino-4-hydroxy-5-methylcyclohexyl)pyridin-3-yl)-6-(5,7-difluoro-2,3-dihydrobenzofuran-6-yl)-5-fluoropicolinamide]
1.72 nM	7.18 nM	119 nM	0.06 nM	COCCOc1cc(F)c(-c2nc(C(=O)Nc3cnccc3[C@H]3C[C@@H](N)[C@@H](O)[C@@H](C)C3)ccc2F)c(F)c1 [Example 124, N-(4-((1R,3R,4S,5S)-3-amino-4-hydroxy-5-methylcyclohexyl)pyridin-3-yl)-6-(2,6-difluoro-4-(2-methoxyethoxy)phenyl)-5-fluoropicolinamide]
